From patent publication US9695155B2, “Herbicidal substituted pyrimidinyloxy benzene compounds” (E. I. DU PONT DE NEMOURS AND COMPANY, priority 2013, dated 2017) come the findings set out here.

Each structure is given as a SMILES string.

Assay [1] concerns deadnettle. Briefly: Test C postemergence. The format is in vivo, Lamium amplexicaule. To be noted: for Plant response rating (0 to 100), Deadnettle: postemergence; for Plant response rating, Deadnettle: Postemergence, scale 0 to 100 (0 no effect, 100 complete control). An excerpt:
Seeds of plant species selected from blackgrass (Alopecurus myosuroides), Italian ryegrass (Lolium multiflorum), wheat, winter (winter wheat, Triticum aestivum), galium (catchweed bedstraw, Galium aparine), corn (Zea mays), large (Lg) crabgrass (Digitaria sanguinalis), giant foxtail (Setaria faberii), johnsongrass (Sorghum halepense), lambsquarters (Chenopodium album), morningglory (Ipomoea coccinea), yellow nutsedge (Cyperus esculentus), pigweed (Amaranthus retroflexus), ragweed (common ragweed, Ambrosia elatior), soybean (Glycine max), barnyardgrass (Echinochloa crus-galli), oilseed rape (Brassica napus), waterhemp (common waterhemp, Amaranthus rudis), kochia (Kochia scoparia), wild oat (Avena fatua), surinam grass (Brachiaria decumbens), foxtail, green (green foxtail, Setaria viridis), goosegrass (Eleusine indica), bromegrass, downy (downy bromegrass, Bromus tectorum), nightshade (eastern black nightshade, Solanum ptycanthum), cocklebur (common cocklebur, Xanthium strumarium), cupgrass, woolly (woolly cupgrass, Eriochloa villosa), bermudagrass (Cynodon dactylon), sunflower, (common oilseed sunflower, Helianthus annuus), Russian thistle (Salsola kali), and velvetleaf (Abutilon theophrasti) were planted into a blend of loam soil and sand and treated preemergence with test chemicals formulated in a non-phytotoxic solvent mixture which included a surfactant.
At the same time, plants selected from these crop and weed species and also barley, winter (winter barley, Hordeum vulgare), windgrass (Apera spica-venti), chickweed (common chickweed, Stellaria media), deadnettle (henbit deadnettle, Lamium amplexicaule), and canarygrass (littleseed canarygrass, Phalaris minor) were planted in pots containing Redi-Earth® planting medium (Scotts Company, 14111 Scottslawn Road, Marysville, Ohio 43041) comprising spaghnum peat moss, vermiculite, wetting agent and starter nutrients and treated with postemergence applications of test chemicals formulated in the same manner. Plants ranged in height from 2 to 18 cm (1- to 4-leaf stage) for postemergence treatments. Treated plants and controls were maintained in a greenhouse for 13 to 15 days, after which time all species were compared to controls and visually evaluated. Plant response ratings, summarized in Table C, are based on a scale of 0 to 100 where 0 is no effect and 100 is complete control. A dash (-) response means no test result.

In assay [2] the test system is barnyardgrass. The experiment in a line: Test G flood (paddy water application). The format is in vivo, Echinochloa crus-galli. To be noted: after 21 days, scale 0 to 100, 0 no effect, 100 complete control. An excerpt: (§1) Three plastic pots (ca. 16-cm diameter) per rate were partially filled with sterilized Tama silt loam soil comprising a 35:50:15 ratio of sand, silt and clay and 2.6% organic matter. Separate plantings for each of the three pots were as follows. Seeds from the U.S. of monochoria (Monochoria vaginalis), sedge, umbrella (small-flower umbrella sedge, Cyperus difformis), hardstem bulrush (Scirpus juncoides), and redstem (purple redstem, Ammannia coccinea), were planted into one 16-cm pot for each rate. Seeds from the U.S. of rice flatsedge (Cyperus iria), bearded sprangletop (Leptochloa fascicularis), one stand of 9 or 10 water seeded rice seedlings (Oryza sativa cv. ‘Japonica—M202’), and two stands of 3 or 4 transplanted rice seedlings (Oryza sativa cv. ‘Japonica—M202’) were planted into one 16-cm pot for each rate. Seeds from the U.S. of barnyardgrass (Echinochloa crus-galli), and late watergrass (Echinochloa oryzicola) were planted into one 16-cm pot for each rate. Plantings were sequential so that crop and weed species were at the 2.0 to 2.5-leaf stage at time of treatment.
(§2) Potted plants were grown in a greenhouse with day/night temperature settings of 30/27° C., and supplemental balanced lighting was provided to maintain a 16-hour photoperiod. Test pots were maintained in the greenhouse until test completion.
(§3) At time of treatment, test pots were flooded to 3 cm above the soil surface, treated by application of test compounds directly to the paddy water, and then maintained at that water depth for the duration of the test. Effects of treatments on rice and weeds were visually evaluated by comparison to untreated controls after 21 days. Plant response ratings, summarized in Table G, are based on a scale of 0 to 100 where 0 is no effect and 100 is complete control. A dash (-) response means no test result.

Assay [3] concerns hardstem bulrush. The experiment in a line: Test G flood (paddy water application). Type of assay: in vivo, Scirpus juncoides. Particulars: after 21 days, scale 0 to 100, 0 no effect, 100 complete control.
Text: as §1, §2, §3

Assay [4] deals with rice flatsedge. The experiment in a line: Test G flood (paddy water application). To be noted: after 21 days, scale 0 to 100, 0 no effect, 100 complete control. Type of assay: in vivo, Cyperus iria.
Text: as §1, §2, §3

The test system of assay [5] is sedge, umbrella. The experiment in a line: Test G flood (paddy water application). The format is in vivo, Cyperus difformis. Particulars: after 21 days, scale 0 to 100, 0 no effect, 100 complete control.
Text: as §1, §2, §3

Assay [6] deals with late watergrass. Briefly: Test G flood (paddy water application). Type of assay: in vivo, Echinochloa oryzicola. To be noted: after 21 days, scale 0 to 100, 0 no effect, 100 complete control.
Text: as §1, §2, §3

For assay [7], the system named is bearded sprangletop. Briefly: Test G flood (paddy water application). The format is in vivo, Leptochloa fascicularis. To be noted: after 21 days, scale 0 to 100, 0 no effect, 100 complete control.
Text: as §1, §2, §3

Assay [8] concerns redstem. Briefly: Test G flood (paddy water application). Particulars: after 21 days, scale 0 to 100, 0 no effect, 100 complete control. The format is in vivo, Ammannia coccinea.
Text: as §1, §2, §3

Assay [9] relates to monochoria. Briefly: Test G flood (paddy water application). To be noted: after 21 days, scale 0 to 100, 0 no effect, 100 complete control. The format is in vivo, Monochoria vaginalis.
Text: as §1, §2, §3

Assay [10] concerns water seeded rice seedlings. Briefly: Test G flood (paddy water application). Type of assay: in vivo, Oryza sativa cv. ‘Japonica—M202’. Particulars: after 21 days, scale 0 to 100, 0 no effect, 100 complete control.
Text: as §1, §2, §3

The subject of assay [11] is transplanted rice seedlings. The experiment in a line: Test G flood (paddy water application). Type of assay: in vivo, Oryza sativa cv. ‘Japonica—M202’. To be noted: after 21 days, scale 0 to 100, 0 no effect, 100 complete control.
Text: as §1, §2, §3

For the molecule `Clc1cnc(Oc2ccccc2-n2cc(Br)cn2)nc1` [Compound 7, 2-[2-(4-bromo-1H-pyrazol-1-yl)phenoxy]-5-chloropyrimidine], the “Plant response rating (0 to 100), Deadnettle” value in assay [1] (125 g ai/ha) was 98; in assay [1] (250 g ai/ha), 100. The “Plant response rating, Deadnettle” value in assay [1] (31 g ai/ha, 13 to 15 days) is 85; in assay [1] (62 g ai/ha), 98.

In the case of `Fc1cnc(Oc2ccccc2-n2cc(Br)cn2)nc1` [Compound 10, 2-[2-(4-bromo-1H-pyrazol-1-yl)phenoxy]-5-fluoropyrimidine], the “Plant response rating (0 to 100), Deadnettle” value in [1] (125 g ai/ha) is listed as 80; in assay [1] (250 g ai/ha), 95. For the same molecule, the “Plant response rating, Deadnettle” value is 50 in assay [1] (31 g ai/ha, 13 to 15 days) and 60 in assay [1] (62 g ai/ha).

On to `FC(F)(F)c1cnn(-c2ccccc2Oc2ncc(Cl)cn2)c1` [Compound 16], for which the “Plant response rating, Barnyardgrass” value in assay [2] (32 g ai/ha) is recorded as 0; in assay [2] (64 g ai/ha) it was 40; in assay [2] (125 g ai/ha), 100; in [2] (250 g ai/ha), 100. Further, the “Plant response rating, Bulrush, Hardstem” value is given as 40 in assay [3] (32 g ai/ha), 50 in assay [3] (64 g ai/ha), 65 in [3] (125 g ai/ha) and 80 in assay [3] (250 g ai/ha). Besides, the “Plant response rating, Flatsedge, Rice” value in assay [4] (32 g ai/ha) was determined as 40; in [4] (64 g ai/ha), 85; in [4] (125 g ai/ha) it was 100; in assay [4] (250 g ai/ha) it was 100. Moreover, the “Plant response rating, Sedge, Umbrella” value in assay [5] (32 g ai/ha) is 0; in assay [5] (64 g ai/ha), 60; in assay [5] (125 g ai/ha), 100; in assay [5] (250 g ai/ha), 100. The “Plant response rating, Watergrass, Late” value in assay [6] (32 g ai/ha) is listed as 0; in assay [6] (64 g ai/ha) it was 0; in [6] (125 g ai/ha), 0; in assay [6] (250 g ai/ha), 80. The “Plant response rating, Sprangletop, Brdd.” value in assay [7] (32 g ai/ha) is listed as 65; in [7] (64 g ai/ha), 100; in assay [7] (125 g ai/ha) it was 100; in assay [7] (250 g ai/ha), 100. In addition, the “Plant response rating, Redstem” value in [8] (32 g ai/ha) is reported as 0; in [8] (64 g ai/ha), 60; in assay [8] (125 g ai/ha), 85; in assay [8] (250 g ai/ha) it was 95. Further, the “Plant response rating, Monochoria” value in assay [9] (32 g ai/ha) amounted to 95; in assay [9] (64 g ai/ha), 95; in [9] (125 g ai/ha) it was 100; in assay [9] (250 g ai/ha) it was 100. In addition, the “Plant response rating, Rice, Water Seeded” value came out at 50 in [10] (32 g ai/ha), 90 in assay [10] (64 g ai/ha), 100 in assay [10] (125 g ai/ha) and 100 in [10] (250 g ai/ha). Further, in assay [11] (32 g ai/ha), the “Plant response rating, Rice, Transplanted” value stood at 0.

As for `FC(F)(F)c1cnn(-c2ccccc2Oc2ncc(Br)cn2)c1` [Compound 18, 5-bromo-2-[2-[4-(trifluoromethyl)-1H-pyrazol-1-yl]phenoxy]pyrimidine], the “Plant response rating, Barnyardgrass” value is listed as 0 in assay [2] (32 g ai/ha), 20 in assay [2] (64 g ai/ha), 35 in [2] (125 g ai/ha) and 100 in assay [2] (250 g ai/ha). Further, the “Plant response rating, Bulrush, Hardstem” value in [3] (32 g ai/ha) came to 0; in assay [3] (64 g ai/ha), 0; in assay [3] (125 g ai/ha) it was 0; in assay [3] (250 g ai/ha), 85. Moreover, the “Plant response rating, Flatsedge, Rice” value in [4] (32 g ai/ha) is 30; in [4] (64 g ai/ha), 75; in assay [4] (125 g ai/ha), 100; in [4] (250 g ai/ha), 100. Also, the “Plant response rating, Sedge, Umbrella” value in assay [5] (32 g ai/ha) was determined as 0; in assay [5] (64 g ai/ha) it was 20; in assay [5] (125 g ai/ha) it was 35; in assay [5] (250 g ai/ha) it was 100. Also, the “Plant response rating, Watergrass, Late” value came out at 0 in assay [6] (32 g ai/ha), 0 in [6] (64 g ai/ha), 0 in assay [6] (125 g ai/ha) and 70 in assay [6] (250 g ai/ha). Also, the “Plant response rating, Sprangletop, Brdd.” value in assay [7] (32 g ai/ha) was determined as 70; in assay [7] (64 g ai/ha) it was 80; in [7] (125 g ai/ha), 90; in assay [7] (250 g ai/ha), 100. Further, the “Plant response rating, Redstem” value was 0 in [8] (32 g ai/ha), 0 in [8] (64 g ai/ha), 75 in [8] (125 g ai/ha) and 90 in assay [8] (250 g ai/ha). Also, the “Plant response rating, Monochoria” value in [9] (32 g ai/ha) is reported as 95; in [9] (64 g ai/ha), 95; in [9] (125 g ai/ha), 100; in [9] (250 g ai/ha) it was 100. Also, the “Plant response rating, Rice, Water Seeded” value in assay [10] (64 g ai/ha) worked out at 60; in assay [10] (125 g ai/ha), 90; in [10] (250 g ai/ha) it was 100. The “Plant response rating, Rice, Transplanted” value came out at 15 in [11] (125 g ai/ha) and 20 in assay [11] (250 g ai/ha).
